Results: patent publication US20220356186A1, “PERK INHIBITING PYRROLOPYRIMIDINE COMPOUNDS” (HiberCell, Inc., priority 2019, published 2022)
Read-outs that look alike come from different tables or passages of the source.

Experiments:
[1] = target: T1, EIF2AK3 (PERK) catalytic domain (amino acids 536-1116) (Homo sapiens, UniProt Q9NZJ5); assay: PERK in vitro activity assay (isolated), TR-FRET kinase assay; format: biochemical; details: isolated PERK enzyme, 1.5 μM ATP; read-out: Biochemical IC50
T1 construct: EIF2AK3 (PERK) catalytic domain (amino acids 536-1116)
T1 sequence (Q9NZJ5 536-1116): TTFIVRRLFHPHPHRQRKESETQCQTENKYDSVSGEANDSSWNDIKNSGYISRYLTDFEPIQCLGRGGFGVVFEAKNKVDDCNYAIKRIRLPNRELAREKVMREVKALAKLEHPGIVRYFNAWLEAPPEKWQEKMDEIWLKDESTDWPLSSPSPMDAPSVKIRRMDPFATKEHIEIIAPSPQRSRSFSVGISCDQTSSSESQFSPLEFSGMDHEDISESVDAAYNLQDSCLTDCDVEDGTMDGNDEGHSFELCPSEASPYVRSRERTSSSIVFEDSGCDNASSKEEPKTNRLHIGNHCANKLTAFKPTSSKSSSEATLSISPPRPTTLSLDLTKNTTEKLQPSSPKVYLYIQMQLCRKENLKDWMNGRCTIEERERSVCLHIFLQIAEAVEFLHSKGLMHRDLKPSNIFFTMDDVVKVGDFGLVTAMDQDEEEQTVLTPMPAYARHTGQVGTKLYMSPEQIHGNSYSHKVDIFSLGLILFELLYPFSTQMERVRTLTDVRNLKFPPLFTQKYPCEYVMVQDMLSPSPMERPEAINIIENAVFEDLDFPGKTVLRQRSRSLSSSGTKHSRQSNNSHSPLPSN
Excerpt: PERK In Vitro Activity Assay (Isolated):
In vitro Inhibition of PERK Enzyme Activity (isolated) Recombinant human EIF2AK2 (PKR) catalytic domain (amino acids 252-551), EIF2AK3 (PERK) catalytic domain (amino acids 536-1116), GFP-eIF2a substrate, and Terbium-labelled phospho-eIF2a antibody is obtained (Invitrogen, Carlsbad, Calif.).
Express and purify HIS-SUMO-GCN2 catalytic domain (amino acids 584-1019) from E. coli. Perform TR-FRET kinase assays in the absence or presence of inhibitors in a reaction buffer consisting of 50 mM HEPES, pH 7.5, 10 mM MgCb, 1.0 mM EGTA, and 0.01% Brij-35, and 100-200 nM GFP-eIF2a substrate. […] Add test compound, initiate the reaction by addition of enzyme, and incubate at room temperature for 45 minutes. Stop the reaction by addition of EDTA to a final concentration of 10 mM, add Terbium-labelled phospho-eIF2a antibody at a final concentration of 2 nM, and incubate for 90 minutes. Monitor the resulting fluorescence in an EnVison® Multilabel reader (PerkinElmer, Waltham, Mass.). Determine TR-FRET ratios and the resulting IC50 values using a 4-parameter nonlinear logistic equation as shown: Y=(A+((B−A)/(1+((C/x)[…])))) where, Y=% specific inhibition, A=Bottom of the curve, B=Top of the curve, C=absolute IC50 (concentration causing 50% inhibition), and D=hill slope.

[2] = test system: GFP-eIF2α in HEK293 cells; assay: PERK cellular assay, TR-FRET in HEK293-EGFP-eIF2a cells after tunicamycin-induced ER stress; format: cell-based; details: HEK293-EGFP-eIF2a cells, tunicamycin 2 hours, read-out: Cellular eIF2α IC50
Protocol: Stable cell lines were created in HEK293 cells using lentiviral particles harboring an expression vector for GFP-eIF2α. Cells were selected using puromycin and enriched using fluorescence activated cell sorting against GFP. HEK293-EGFP-eIF2a cells were plated at 5000 cells/well in 384-well assay plates and incubated overnight at 37° C., 5% CO2. Inhibitor compounds were added to the wells by Echo acoustic dispensing and incubated for 30 minutes at 37° C., 5% CO2 prior to induction of ER stress by addition of tunicamycin to […] for 2 hours. Cells were lysed and TR-FRET was measured in an EnVision plate reader (PerkinElmer). FRET ratio data was normalized to signal from lysates treated with DMSO vehicle control and plotted as percent inhibition against 10-point; 3-fold dilution series of inhibitors. IC50 values were calculated using 4-parameter logistical fitting in XLFit.

`COc1cc(NC(=O)C(O)c2cccc(F)c2)ccc1-c1cn(C)c2ncnc(N)c12` (stereo not shown) [Example 104, N-(4-(4-amino-7-methyl-7H-pyrrolo[2,3-d]pyrimidin-5-yl)-3-methoxyphenyl)-2-(3-fluorophenyl)-2-hydroxyacetamide] gave an IC50 [1] of 26 to 50 nM and an IC50 [2] of 101 to 250 nM.

`CCc1cccc(C(O)C(=O)Nc2ccc(-c3cn(C)c4nc(C)nc(N)c34)c(Cl)c2)c1` (stereo not shown) [Example 97, N-(4-(4-amino-2,7-dimethyl-7H-pyrrolo[2,3-d]pyrimidin-5-yl)-3-chlorophenyl)-2-(3-ethylphenyl)-2-hydroxyacetamide] showed an IC50 [1] of 1 to 25 nM and an IC50 [2] of 1 to 25 nM.

For `Cc1cc(NC(=O)Cc2ccc(Cl)cc2)ccc1-c1cn(C)c2ncnc(N)c12` [Example 151, N-(4-(4-amino-7-methyl-7H-pyrrolo[2,3-d]pyrimidin-5-yl)-3-methylphenyl)-2-(4-chlorophenyl)acetamide], the IC50 [1] was 1 to 25 nM and the IC50 ([2]; Homo sapiens, HEK293, 2 h) was 101 to 250 nM.

Work on `Cc1cc(NC(=O)Cc2ccccc2Cl)ccc1-c1cn(C)c2ncnc(N)c12` [Example 149, N-(4-(4-amino-7-methyl-7H-pyrrolo[2,3-d]pyrimidin-5-yl)-3-methylphenyl)-2-(2-chlorophenyl)acetamide] yielded an IC50 [1] of 1 to 25 nM and an IC50 ([2]; Homo sapiens, HEK293, 2 h) of 26 to 50 nM.

Compound `Cc1nc(N)c2c(-c3ccc(NC(=O)C(O)c4ccccc4C)cc3F)cn(C)c2n1` (stereo not shown) [Example 71, N-(4-(4-amino-2,7-dimethyl-7H-pyrrolo[2,3-d]pyrimidin-5-yl)-3-fluorophenyl)-2-hydroxy-2-(o-tolyl)acetamide] has an IC50 [2] of 2000 to 3000 nM.

Compound `Cc1nc(N)c2c(-c3ccc(NC(=O)C(O)c4cccc(C(F)(F)F)n4)cc3C)cn(C)c2n1` (stereo not shown) [Example 61, N-(4-(4-amino-2,7-dimethyl-7H-pyrrolo[2,3-d]pyrimidin-5-yl)-3-methylphenyl)-2-hydroxy-2-(6-(trifluoromethyl)pyridin-2-yl)acetamide] has an IC50 [1] of 101 to 250 nM and an IC50 [2] of 501 to 1000 nM.

Compound `CCc1cc(F)cc(C(O)C(=O)Nc2ccc(-c3cn(C)c4nc(C)nc(N)c34)c(C)c2)c1` (stereo not shown) [Example 59, N-(4-(4-amino-2,7-dimethyl-7H-pyrrolo[2,3-d]pyrimidin-5-yl)-3-methylphenyl)-2-(3-ethyl-5-fluorophenyl)-2-hydroxyacetamide] has an IC50 [1] of 51 to 100 nM and an IC50 [2] of 251 to 500 nM.

`Cc1nc(N)c2c(-c3ccc(NC(=O)C(O)c4cccc5cnn(C)c45)cc3C)cn(C)c2n1` (single isomer, unassigned) [Example 65, N-(4-(4-amino-2,7-dimethyl-7H-pyrrolo[2,3-d]pyrimidin-5-yl)-3-methylphenyl)-2-hydroxy-2-(1-methyl-1H-indazol-7-yl)acetamide] was tested, and the IC50 [1] was 251 to 500 nM and the IC50 [2] was 3000 to 4000 nM.

Work on `CCc1cccc(CC(=O)Nc2ccc(-c3cn(C)c4ncnc(N)c34)c(C)c2)c1` [Example 146, N-(4-(4-amino-7-methyl-7H-pyrrolo[2,3-d]pyrimidin-5-yl)-3-methylphenyl)-2-(3-ethylphenyl)acetamide] yielded an IC50 [1] of 1 to 25 nM and an IC50 ([2]; Homo sapiens, HEK293, 2 h) of 1 to 25 nM.

Work on `Cn1cc(-c2ccc(NC(=O)C(O)c3cccc(F)c3)cc2OC(F)(F)F)c2c(N)ncnc21` (stereo not shown) [Example 18, N-(4-(4-amino-7-methyl-7H-pyrrolo[2,3-d]pyrimidin-5-yl)-3-(trifluoromethoxy)phenyl)-2-(3-fluorophenyl)-2-hydroxyacetamide] yielded an IC50 [1] of 1 to 25 nM and an IC50 ([2]; Homo sapiens, HEK293, 2 h) of 101 to 250 nM.

In the case of `Cc1cc(NC(=O)Cc2cccc3ccccc23)ccc1-c1cn(C)c2ncnc(N)c12` [Example 153, N-(4-(4-amino-7-methyl-7H-pyrrolo[2,3-d]pyrimidin-5-yl)-3-methylphenyl)-2-(naphthalen-1-yl)acetamide], the IC50 [1] is reported as 1 to 25 nM and the IC50 ([2]; Homo sapiens, HEK293, 2 h) is reported as 26 to 50 nM.

`Cc1ccc(CC(=O)Nc2ccc(-c3cn(C)c4ncnc(N)c34)c(C)c2)cc1` [Example 144, N-(4-(4-amino-7-methyl-7H-pyrrolo[2,3-d]pyrimidin-5-yl)-3-methylphenyl)-2-(p-tolyl)acetamide] showed an IC50 [1] of 1 to 25 nM and an IC50 ([2]; Homo sapiens, HEK293, 2 h) of 101 to 250 nM.

Work on `Cc1nc(N)c2c(-c3cnc(NC(=O)C(O)c4cccc(F)c4)cc3C)cn(C)c2n1` (stereo not shown) [Example 134, N-(5-(4-amino-2,7-dimethyl-7H-pyrrolo[2,3-d]pyrimidin-5-yl)-4-methylpyridin-2-yl)-2-(3-fluorophenyl)-2-hydroxyacetamide] yielded an IC50 [1] of 1 to 25 nM and an IC50 [2] of 101 to 250 nM.

For `Cc1cc(NC(=O)Oc2ccccc2)ccc1-c1cn(C)c2ncnc(N)c12` [Example 169, phenyl (4-(4-amino-7-methyl-7H-pyrrolo[2,3-d]pyrimidin-5-yl)-3-methylphenyl)carbamate], the IC50 [1] was 3000 to 4000 nM and the IC50 ([2]; Homo sapiens) was over 5000 nM.

`Cc1cccc(CC(=O)Nc2ccc(-c3cn(C)c4ncnc(N)c34)c(C)c2)c1` [Example 143, N-(4-(4-amino-7-methyl-7H-pyrrolo[2,3-d]pyrimidin-5-yl)-3-methylphenyl)-2-(m-tolyl)acetamide] was tested, and the IC50 [1] was 1 to 25 nM and the IC50 ([2]; Homo sapiens, HEK293, 2 h) was 26 to 50 nM.

For `Cc1ccccc1CC(=O)Nc1ccc(-c2cn(C)c3ncnc(N)c23)c(C)c1` [Example 142, N-(4-(4-amino-7-methyl-7H-pyrrolo[2,3-d]pyrimidin-5-yl)-3-methylphenyl)-2-(o-tolyl)acetamide], the IC50 [1] was 1 to 25 nM and the IC50 ([2]; Homo sapiens, HEK293, 2 h) was 26 to 50 nM.

With `Cc1nc(N)c2c(-c3c(C)cc(NC(=O)C(O)c4cccc(F)c4)cc3F)cn(C)c2n1` (stereo not shown) [Example 125, N-(4-(4-amino-2,7-dimethyl-7H-pyrrolo[2,3-d]pyrimidin-5-yl)-3-fluoro-5-methylphenyl)-2-(3-fluorophenyl)-2-hydroxyacetamide] the IC50 [1] was 1 to 25 nM and the IC50 ([2]; Homo sapiens, HEK293, 2 h) was 51 to 100 nM.

`Cc1cccc(CC(=O)Nc2ccc(-c3cn(C)c4ncnc(N)c34)c(C)c2)n1` [Example 136, N-(4-(4-amino-7-methyl-7H-pyrrolo[2,3-d]pyrimidin-5-yl)-3-methylphenyl)-2-(6-methylpyridin-2-yl)acetamide] gave an IC50 [1] of 1 to 25 nM and an IC50 ([2]; Homo sapiens, HEK293, 2 h) of 1 to 25 nM.

`Cc1cc(NC(=O)CC2CCCC2)ccc1-c1cn(C)c2ncnc(N)c12` [Example 165, N-(4-(4-amino-7-methyl-7H-pyrrolo[2,3-d]pyrimidin-5-yl)-3-methylphenyl)-2-cyclopentyl-acetamide] showed an IC50 [1] of 101 to 250 nM and an IC50 ([2]; Homo sapiens, HEK293, 2 h) of 501 to 1000 nM.

In the case of `Cc1nc(N)c2c(-c3ccc(NC(=O)C(O)c4cccc(F)c4)c(F)c3)cn(C)c2n1` (stereo not shown) [Example 90, N-(4-(4-amino-2,7-dimethyl-7H-pyrrolo[2,3-d]pyrimidin-5-yl)-2-fluorophenyl)-2-(3-fluorophenyl)-2-hydroxyacetamide], the IC50 [1] is reported as 1 to 25 nM and the IC50 [2] is reported as 26 to 50 nM.

Work on `Cc1cc(NC(=O)Cc2cccc(F)c2)ccc1-c1cn(C)c2ncnc(N)c12` [Example 161] yielded an IC50 [1] of 26 to 50 nM.

`Cc1cc(NC(=O)Cc2ccccc2F)ccc1-c1cn(C)c2ncnc(N)c12` [Example 160, N-(4-(4-amino-7-methyl-7H-pyrrolo[2,3-d]pyrimidin-5-yl)-3-methylphenyl)-2-(2-fluorophenyl)acetamide] was tested, and the IC50 [1] was 1 to 25 nM.

Compound `Cc1nc(N)c2c(-c3ccc(NC(=O)C(O)c4ccccc4C)cc3F)cn(C)c2n1` (stereo not shown) [Example 72, N-(4-(4-amino-2,7-dimethyl-7H-pyrrolo[2,3-d]pyrimidin-5-yl)-3-fluorophenyl)-2-hydroxy-2-(o-tolyl)acetamide] has an IC50 [2] of 26 to 50 nM.

`Cc1cc(NC(=O)Cc2cccc(C(F)(F)F)c2)ccc1-c1cn(C)c2ncnc(N)c12` [Example 158, N-(4-(4-amino-7-methyl-7H-pyrrolo[2,3-d]pyrimidin-5-yl)-3-methylphenyl)-2-(3-(trifluoromethyl)phenyl)acetamide] showed an IC50 [1] of 1 to 25 nM.
